# Test results as given in article PMC5556071, “ATR inhibition facilitates targeting of leukemia dependence on convergent nucleotide biosynthetic pathways” (Nature Communications, 2017).
# Values joined by “and” are separate entries in the source; they are usually repeats but may differ in a detail not shown here. Equal entries are not always repeated.
# Tests used:
# [1] = test system: CEM cells; assay: Targeted LC-MS/MS-MRM of de novo and salvage dCTP biosynthesis (nucleotide pools and newly replicated DNA); assay type: cell-based, human; set-up: key to Substrate utilization Glucose / Substrate utilization dC: ↓: partial decrease/inhibition; ↓↓↓: nearly complete inhibition; ↑: increase; ⟷: no change
# Experimental: Cells were transferred into RPMI-1640 without glucose and supplemented with 10% dialyzed FBS (Gibco) containing the following labeled substrates: precursors for de novo [U-^13C6]glucose (Sigma-Aldrich, 389374) at 11 mM; precursors for purine salvage [U-^13C10,^15N5]dA (Cambridge Isotopes, CIL 3896), [^15N5]dA (Cambridge Isotopes, NLM-3895) and [^15N5]dG (Cambridge Isotopes, NLM-3899) at 5 µM or as indicated; and precursors for pyrimidine salvage: [U-^13C9,^15N3]dC (Silantes, 124603602) and [U-^13C10,^15N2]dT (Cambridge Isotopes, CNLM-3902) at 5 µM and [^15N2]orotate (Cambridge Isotopes, NLM-1048) at indicated concentrations. The cells were incubated for 12 h or as indicated before sample collection and processing.
# The rates of dCTP incorporation into the DNA were determined using linear regression with procedure GLM in SAS (v. 9.4). DNA % label was transformed using a shifted log addition of 1 due to the presence of zeros in the data set. Rates were calculated using the slope of the regression line for the log transformed data and are presented in the table with the associated standard errors, along with the ratio between the rate of incorporation into DNA by the de novo and salvage pathways (Table 1).
# Cell cycle synchronization. Cells were treated with a CDK4/6 inhibitor, Pablociclib or PD-0332991 (Selleckchem, S1116) for 18 h to synchronize them in the G1 phase. Subsequently, cells were washed twice with PBS containing 2% FBS (Omega Scientific) and released into fresh media. […]
# Clinical Microarray Core on an Illumina HiSeq3000 using the SeqCap EZ Exome Enrichment Kit v3.0 (Roche).
# Reads were mapped to UCSC hg19 (bwa-mem), deduplicaed (PicardTools), and subjected to base quality score recalibration and realignment around known indels according to the Broad Institute Genome Analysis Toolkit (GATK) Best Practices v3.0. Variants in genes associated with nucleotide biosynthesis were identified using the GATK HaplotypeCaller, and annotated with Oncotator (http://portals.broadinstitute.org/oncotator/). dNTP sample processing. 0.5 – 1 x 10^6 cells were collected into 1.5 mL microcentrifuge tubes and centrifuged (450 x g, 4 min, 4 °C). The supernatant was carefully aspirated and the cells were washed twice with 1 mL of cold PBS, followed each time by centrifugation (450 x g, 4 min 4 °C). The PBS were aspirated.
# Thereafter, the pellets were treated with 10 µL of 10% trifluoroacetic acid with internal standards (1 µM […]
# s, and incubated on ice for 10 min. 40 µL of 500 mM ammonium acetate, pH = 9.3, with the same internal standard (1 µM [15N3]dCMP and [15N3]dCTP) was then added and the samples were vigorously vortexed again for 30 s. The samples were centrifuged (14,000 x g, 10 min, 4 °C) to remove cell debris. The supernatants (~ 40 µL) were transferred into HPLC injector vials. Stock solutions (10 mM) of rCTP, rCDP, dCMP, dCDP, and dCTP (Sigma Aldrich) were prepared individually in water, and stored at –20 °C before use to generate calibration standards. Calibration standards were prepared and mixed together in water with internal standards (1 µM [15N3]dCMP and [15N3]dCTP) to make working stock concentrations in 100 nM – 100 µM range.
# Calibration standards were diluted 10-fold into the same nucleotide extraction solution of 10% TFA/500 mM ammonium acetate (1:4, v/v) with internal standards (1 µM [15N3]dCMP and [15N3]dCTP) to give a final concentration in 10 nM – 10 µM. Nucleotide and calibration samples were processed together to minimize […]
# DNA sample processing. Genomic DNA from 0.5 – 1 x 10^4 cells was extracted using the Quick-gDNA MiniPrep kit (Zymo Research, D3021) and hydrolyzed to nucleosides using the DNA Degradase Plus kit (Zymo Research, E2021), following manufacturer-supplied instructions. In the final step of DNA extraction, 50 µL of […]
# water was used to elute the DNA into 1.5 mL microcentrifuge tubes. A nuclease solution (5 µL; 10X buffer/DNA Degradase Plus™/water, 2.5/1/1.5, v/v/v) was added to 20 µL of the eluted genomic DNA in an HPLC injector […]
# vial. […]
# [2] = test system: CEM cells; assay: Phospho-histone 3 (H3 pS10) staining, flow cytometry; assay type: cell-based, human; settings: 500 nM 3-AP, 1 µM VE-822, 1 µM dCKi, 24 h
# Experimental: Phospho-histone 3 staining. Cells were treated with drug combinations of three drugs. 24 h following treatment, cells were fixed and permeabilized with 1% PFA and 1X Perm/wash solution respectively.
# Following fixation and permeabilization, cells were stained intracellularly with pH3 Ser10 antibody conjugated to AF647 (Cell signaling, #12230). Cells were then washed with PBS, stained with 0.5 mL of DAPI for DNA content (1 µg/mL in 2% FBS in PBS) before data acquisition. […]
# FACS analysis. All flow cytometry data were acquired on five-laser LSRII cytometers (BD) for analysis, and analyzed using FlowJo software (Tree Star). The cell cycle durations were calculated using equations for multiple time-point measurements according to previously published methods (Terry and White, 2006).
# [3] = CEM 12 h, 1 uM VE-822, 1 uM DI-82, 500 nM 3-AP, #1-#3
# [4] = CEM after release from G1 arrest
compound,measurement,setting,value
COc1ccc(-c2nc([C@@H](C)Sc3nc(N)cc(N)n3)c(C)s2)cc1OCCNS(C)(=O)=O [dCKi],reduction of the amount of free dCTP,[1]; 12 h time point after release from G1 arrest,~ 50%
same,"% sum abundance, de novo DNA-C, mass increase in nucleobase +0, in deoxyribose +3",[1]; [3],0.18% and 0.19%
same,"% sum abundance, de novo DNA-C, mass increase in nucleobase +0, in deoxyribose +4",[1]; [3],0.58% and 0.55%
same,"% sum abundance, de novo DNA-C, mass increase in nucleobase +0, in deoxyribose +5",[1]; [3],9.50% and 9.45% and 9.86%
same,"% sum abundance, de novo DNA-C, mass increase in nucleobase +1, in deoxyribose +3",[1]; [3],0.00%
same,"% sum abundance, de novo DNA-C, mass increase in nucleobase +1, in deoxyribose +4",[1]; [3],0.09% and 0.07%
same,"% sum abundance, de novo DNA-C, mass increase in nucleobase +1, in deoxyribose +5",[1]; [3],1.18% and 1.24%
same,"% sum abundance, de novo DNA-C, mass increase in nucleobase +2, in deoxyribose +4",[1]; [3],0.053% and 0.05%
same,"% sum abundance, de novo DNA-C, mass increase in nucleobase +2, in deoxyribose +5",[1]; [3],0.82% and 0.79% and 0.87%
same,"% sum abundance, de novo DNA-C, mass increase in nucleobase +3, in deoxyribose +4",[1]; [3],0.00%
same,"% sum abundance, de novo DNA-C, mass increase in nucleobase +3, in deoxyribose +5",[1]; [3],0.20% and 0.19%
same,"% sum abundance, de novo DNA-C, mass increase in nucleobase +4, in deoxyribose +4",[1]; [3],0.00%
same,"% sum abundance, de novo DNA-C, mass increase in nucleobase +4, in deoxyribose +5",[1]; [3],0.00%
same,"% sum abundance, salvage DNA-C, mass increase in nucleobase +5, in deoxyribose +0",[1]; [3],0.00%
same,"% sum abundance, salvage DNA-C, mass increase in nucleobase +5, in deoxyribose +4",[1]; [3],0.00%
same,"% sum abundance, salvage DNA-C, mass increase in nucleobase +5, in deoxyribose +5",[1]; [3],0.00%
same,"% sum abundance, salvage DNA-C, mass increase in nucleobase +6, in deoxyribose +0",[1]; [3],0.00%
same,"% sum abundance, salvage DNA-C, mass increase in nucleobase +6, in deoxyribose +4",[1]; [3],0.00%
same,"% sum abundance, salvage DNA-C, mass increase in nucleobase +6, in deoxyribose +5",[1]; [3],0.00%
same,"% sum abundance, salvage DNA-C, mass increase in nucleobase +7, in deoxyribose +0",[1]; [3],0.00%
same,"% sum abundance, salvage DNA-C, mass increase in nucleobase +7, in deoxyribose +4",[1]; [3],0.00%
same,"% sum abundance, salvage DNA-C, mass increase in nucleobase +7, in deoxyribose +5",[1]; [3],0.07% and 0.09% and 0.0853%
same,"% sum abundance, unlabeled DNA-C, mass increase in nucleobase +0, in deoxyribose +0",[1]; [3],77.58% and 77.11% and 77.29%
same,"% sum abundance, unlabeled DNA-C, mass increase in nucleobase +0, in deoxyribose +1",[1]; [3],4.40% and 4.55% and 4.26%
same,"% sum abundance, unlabeled DNA-C, mass increase in nucleobase +0, in deoxyribose +2",[1]; [3],0.75% and 0.68% and 0.59%
same,"% sum abundance, unlabeled DNA-C, mass increase in nucleobase +1, in deoxyribose +0",[1]; [3],4.14% and 4.45% and 4.26%
same,"% sum abundance, unlabeled DNA-C, mass increase in nucleobase +1, in deoxyribose +1",[1]; [3],0.23% and 0.29% and 0.22%
same,"% sum abundance, unlabeled DNA-C, mass increase in nucleobase +1, in deoxyribose +2",[1]; [3],0.00%
same,"% sum abundance, unlabeled DNA-C, mass increase in nucleobase +2, in deoxyribose +0",[1]; [3],0.23% and 0.31% and 0.29%
same,"% sum abundance, unlabeled DNA-C, mass increase in nucleobase +2, in deoxyribose +1",[1]; [3],0.00%
same,"% sum abundance, unlabeled DNA-C, mass increase in nucleobase +2, in deoxyribose +2",[1]; [3],0.00%
same,"% sum abundance, unlabeled DNA-C, mass increase in nucleobase +3, in deoxyribose +0",[1]; [3],0.00%
same,"% sum abundance, unlabeled DNA-C, mass increase in nucleobase +3, in deoxyribose +1",[1]; [3],0.00%
same,"% sum abundance, unlabeled DNA-C, mass increase in nucleobase +4, in deoxyribose +0",[1]; [3],0.00%
same,De novo: rate of dCTP incorporation into newly replicated DNA (slope ± standard error of regression line),[1]; [4],0.23 ± 0.01 arbitrary unit
same,Ratio (salvage/de novo),[1]; [4],0.082
same,Salvage: rate of dCTP incorporation into newly replicated DNA (slope ± standard error of regression line),[1]; [4],0.019 ± 0.004 arbitrary unit
same,"reduction of dCK activity (contribution of labeled [13C9,15N3]dC to intracellular dCMP)","[1]; asynchronous CEM, 12 h",~ 90%
same,Substrate utilization Glucose,"[1]; summary Fig. 2g, CEM cells",↑
same,Substrate utilization dC,"[1]; summary Fig. 2g, CEM cells",↓↓↓
same,"H3 pS10 plot, upper percentage (gate not given)",[2],2.4%
